Paper PMC5218480 (PLoS ONE, 2017)

Test system: MV-4-11 cells
Assay: Gene expression microarray analysis (Affymetrix PrimeView) and GSEA
Assay type: cell-based, human
Design: RFU PODN (11730768_x_at) / Fold change /veh PODN (11730768_x_at) / RFU LINC00158 (11744669_a_at) / Fold change /veh LINC00158 (11744669_a_at) / RFU DUSP10 (11751237_a_at) / Fold change /veh DUSP10 (11751237_a_at) / RFU ID3 (11757404_x_at) / Fold change /veh ID3 (11757404_x_at) / RFU PLEKHG5 (11737974_s_at) / Fold change /veh PLEKHG5 (11737974_s_at) / RFU LRRC4B (11730491_at) / Fold change /veh LRRC4B (11730491_at) / RFU GIMAP4 (11747438_a_at) / Fold change /veh GIMAP4 (11747438_a_at) / RFU KRT8 (11758183_x_at) / Fold change /veh KRT8 (11758183_x_at) / RFU CNN1 (11734310_a_at) / Fold change /veh CNN1 (11734310_a_at) / RFU VPS37D (11726825_at) / Fold change /veh VPS37D (11726825_at) / RFU C10orf10 (11716522_x_at) / Fold change /veh C10orf10 (11716522_x_at) / RFU KIR2DL2 /// KIR2DL4 /// KIR2DL5A /// KIR2DL5B /// KIR2DS1 /// KIR2DS2 /// KIR2DS3 /// KIR2DS4 /// KIR3DL3 /// KIR3DL3 /// KIR3DS1 (11738374_at) / Fold change /veh KIR2DL2 /// KIR2DL4 /// KIR2DL5A /// KIR2DL5B /// KIR2DS1 /// KIR2DS2 /// KIR2DS3 /// KIR2DS4 /// KIR3DL3 /// KIR3DL3 /// KIR3DS1 (11738374_at) / RFU C1QL1 (11718748_at) / Fold change /veh C1QL1 (11718748_at) / RFU TMPRSS4 (11747572_a_at) / Fold change /veh TMPRSS4 (11747572_a_at) / RFU HAMP (11756126_x_at) / Fold change /veh HAMP (11756126_x_at) / RFU RNFT2 (11725882_a_at) / Fold change /veh RNFT2 (11725882_a_at) / RFU NR4A2 (11747474_a_at) / Fold change /veh NR4A2 (11747474_a_at) / RFU ABCC12 (11746883_a_at) / Fold change /veh ABCC12 (11746883_a_at) / RFU TMEM136 (11760407_x_at) / Fold change /veh TMEM136 (11760407_x_at) / RFU CLDN22 /// WWC2 (11732394_at) / Fold change /veh CLDN22 /// WWC2 (11732394_at) / RFU HLA-DPB1 (11760878_x_at) / Fold change /veh HLA-DPB1 (11760878_x_at) / RFU SPINT1 (11716480_a_at) / Fold change /veh SPINT1 (11716480_a_at) / RFU GAP43 (11754022_s_at) / Fold change /veh GAP43 (11754022_s_at) / RFU A4GNT (11735810_at) / Fold change /veh A4GNT (11735810_at) / RFU PRB3 (11715151_x_at) / Fold change /veh PRB3 (11715151_x_at) / RFU TUBB4B (11761932_at) / Fold change /veh TUBB4B (11761932_at) / RFU CAPN14 (11732068_a_at) / Fold change /veh CAPN14 (11732068_a_at) / RFU TMCC2 (11721928_a_at) / Fold change /veh TMCC2 (11721928_a_at) / RFU IRGQ (11745062_a_at) / Fold change /veh IRGQ (11745062_a_at) / RFU FAM174B (11720279_a_at) / Fold change /veh FAM174B (11720279_a_at) / RFU TMPRSS4 (11748680_a_at) / Fold change /veh TMPRSS4 (11748680_a_at) / RFU FAM212B (11763350_a_at) / Fold change /veh FAM212B (11763350_a_at) / RFU PLEKHG5 (11743358_a_at) / Fold change /veh PLEKHG5 (11743358_a_at) / RFU ZSCAN30 (11745921_a_at) / Fold change /veh ZSCAN30 (11745921_a_at) / RFU CMKLR1 (11741424_a_at) / Fold change /veh CMKLR1 (11741424_a_at) / RFU LOC101060620 /// MAPK8IP1 (11723275_at) / Fold change /veh LOC101060620 /// MAPK8IP1 (11723275_at) / RFU SPTSSB (11747773_x_at) / Fold change /veh SPTSSB (11747773_x_at) / RFU PRSS12 (11739890_at) / Fold change /veh PRSS12 (11739890_at) / RFU BIN1 (11741810_x_at) / Fold change /veh BIN1 (11741810_x_at) / RFU WNT11 (11732464_a_at) / Fold change /veh WNT11 (11732464_a_at) / RFU C10orf10 (11716521_a_at) / Fold change /veh C10orf10 (11716521_a_at) / RFU C5orf56 (11738089_at) / Fold change /veh C5orf56 (11738089_at) / RFU CYB561 (11721691_x_at) / Fold change /veh CYB561 (11721691_x_at) / RFU ANKRD19P (11752326_a_at) / Fold change /veh ANKRD19P (11752326_a_at) / RFU OR2T12 /// OR2T33 /// OR2T8 (11738714_s_at) / Fold change /veh OR2T12 /// OR2T33 /// OR2T8 (11738714_s_at) / RFU VCAN (11748164_a_at) / Fold change /veh VCAN (11748164_a_at) / RFU JSRP1 (11732532_at) / Fold change /veh JSRP1 (11732532_at) / RFU KRTAP10-11 (11738290_x_at) / Fold change /veh KRTAP10-11 (11738290_x_at) / RFU MYO3A (11730013_a_at) / Fold change /veh MYO3A (11730013_a_at) / RFU EBF3 (11725865_a_at) / Fold change /veh EBF3 (11725865_a_at) / RFU CAMK2N1 (11719241_x_at) / Fold change /veh CAMK2N1 (11719241_x_at) / RFU C5orf56 (11738088_a_at) / Fold change /veh C5orf56 (11738088_a_at) / RFU OLFML3 (11715873_a_at) / Fold change /veh OLFML3 (11715873_a_at) / RFU LOC100653217 /// NTM (11731650_a_at) / Fold change /veh LOC100653217 /// NTM (11731650_a_at) / RFU MAPK11 (11762145_a_at) / Fold change /veh MAPK11 (11762145_a_at) / RFU FIZ1 (11724087_x_at) / Fold change /veh FIZ1 (11724087_x_at) / RFU OASL (11726364_x_at) / Fold change /veh OASL (11726364_x_at) / RFU SOX15 (11748057_x_at) / Fold change /veh SOX15 (11748057_x_at) / RFU CD79A (11719716_a_at) / Fold change /veh CD79A (11719716_a_at) / RFU HIST1H1D (11736915_at) / Fold change /veh HIST1H1D (11736915_at) / RFU CASKIN2 (11723855_a_at) / Fold change /veh CASKIN2 (11723855_a_at) / RFU LOC730098 (11760151_x_at) / Fold change /veh LOC730098 (11760151_x_at) / RFU OR4N2 (11742367_at) / Fold change /veh OR4N2 (11742367_at) / RFU PRRT2 (11749266_a_at) / Fold change /veh PRRT2 (11749266_a_at) / RFU SNX32 (11753110_a_at) / Fold change /veh SNX32 (11753110_a_at) / RFU CDHR5 (11726645_a_at) / Fold change /veh CDHR5 (11726645_a_at) / RFU RCAN1 (11760418_a_at) / Fold change /veh RCAN1 (11760418_a_at) / RFU FAM167A (11723789_a_at) / Fold change /veh FAM167A (11723789_a_at) / RFU FAM26E (11764081_at) / Fold change /veh FAM26E (11764081_at) / RFU ISYNA1 (11749810_s_at) / Fold change /veh ISYNA1 (11749810_s_at) / RFU ACY1 (11761880_at) / Fold change /veh ACY1 (11761880_at) / RFU 11764098_at / Fold change /veh 11764098_at / RFU SAMD14 (11745864_x_at) / Fold change /veh SAMD14 (11745864_x_at) / RFU NPB (11741838_a_at) / Fold change /veh NPB (11741838_a_at) / RFU TMPRSS6 (11731388_a_at) / Fold change /veh TMPRSS6 (11731388_a_at) / RFU KRTAP10-2 (11738614_at) / Fold change /veh KRTAP10-2 (11738614_at) / RFU ARHGAP8 /// PRR5-ARHGAP8 (11727945_x_at) / Fold change /veh ARHGAP8 /// PRR5-ARHGAP8 (11727945_x_at) / RFU KRTAP5-7 /// NADSYN1 (11734609_at) / Fold change /veh KRTAP5-7 /// NADSYN1 (11734609_at) / RFU RASL12 (11751679_a_at) / Fold change /veh RASL12 (11751679_a_at) / RFU CDKN2B (11736163_a_at) / Fold change /veh CDKN2B (11736163_a_at) / RFU PRF1 (11729649_at) / Fold change /veh PRF1 (11729649_at) / RFU, ZNF638 /// ZNF638-IT1 / Fold change vs veh, ZNF638 /// ZNF638-IT1 / RFU, PANK3 / Fold change vs veh, PANK3 / RFU, SH3YL1 / Fold change vs veh, SH3YL1 / RFU, ZEB2 / Fold change vs veh, ZEB2 / RFU, NRIP1 / Fold change vs veh, NRIP1 / RFU, PTTG1IP / Fold change vs veh, PTTG1IP / RFU, CAPN2 / Fold change vs veh, CAPN2 / RFU, MED14 / Fold change vs veh, MED14 / RFU, SNORA58 / Fold change vs veh, SNORA58 / RFU, C1orf63 / Fold change vs veh, C1orf63 / RFU, LRRFIP1 / Fold change vs veh, LRRFIP1 / RFU, NDUFAF7 / Fold change vs veh, NDUFAF7 / RFU, SLC12A2 / Fold change vs veh, SLC12A2 / RFU, IBTK / Fold change vs veh, IBTK / RFU, ESF1 / Fold change vs veh, ESF1 / Fold change vs veh, TMEM50B / RFU, TAOK1 / Fold change vs veh, TAOK1 / RFU, ACBD3 / Fold change vs veh, ACBD3 / RFU, TMA16 / Fold change vs veh, TMA16 / RFU, RWDD3 / Fold change vs veh, RWDD3 / RFU, BCAT1 / Fold change vs veh, BCAT1 / RFU, EDEM3 / Fold change vs veh, EDEM3 / RFU, TMEM33 / Fold change vs veh, TMEM33 / RFU, WDR75 / Fold change vs veh, WDR75 / RFU, AHCTF1 / Fold change vs veh, AHCTF1 / RFU, TFRC / Fold change vs veh, TFRC / RFU, ZDHHC17 / Fold change vs veh, ZDHHC17 / RFU, NOM1 / Fold change vs veh, NOM1 / RFU, ARL8B / Fold change vs veh, ARL8B / RFU, ZBTB11 / Fold change vs veh, ZBTB11 / RFU, TAMM41 / Fold change vs veh, TAMM41 / RFU, KIAA1704 /// LOC100996395 / Fold change vs veh, KIAA1704 /// LOC100996395 / RFU, ING1 / Fold change vs veh, ING1 / RFU, TRMT61B / Fold change vs veh, TRMT61B / RFU, FUBP3 / Fold change vs veh, FUBP3 / RFU, TP53 / Fold change vs veh, TP53 / RFU, TNKS2 / Fold change vs veh, TNKS2 / RFU, ZFP14 / Fold change vs veh, ZFP14 / RFU, ACTR2 / Fold change vs veh, ACTR2 / RFU, PPP3R1 / Fold change vs veh, PPP3R1 / RFU, PIK3R1 / Fold change vs veh, PIK3R1 / RFU, HNRNPA1 / Fold change vs veh, HNRNPA1 / RFU, RNF170 / Fold change vs veh, RNF170 / RFU, ZNF28 / Fold change vs veh, ZNF28 / RFU, RNGTT / Fold change vs veh, RNGTT / RFU, OGT / Fold change vs veh, OGT / RFU, BRD1 / Fold change vs veh, BRD1 / RFU, MARS / Fold change vs veh, MARS / RFU, ZNF655 / Fold change vs veh, ZNF655 / RFU, FAHD1 / Fold change vs veh, FAHD1 / RFU, BDP1 / Fold change vs veh, BDP1 / RFU, LRRCC1 / Fold change vs veh, LRRCC1 / RFU, ARID1A / Fold change vs veh, ARID1A / RFU, ZNF146 / Fold change vs veh, ZNF146 / RFU, ZNF330 / Fold change vs veh, ZNF330 / RFU, GPN3 / Fold change vs veh, GPN3 / RFU, C9orf123 / Fold change vs veh, C9orf123 / RFU, N4BP2L2 / Fold change vs veh, N4BP2L2 / RFU, ARFIP1 / Fold change vs veh, ARFIP1 / RFU, FAM179B / Fold change vs veh, FAM179B / RFU, BCL10 / Fold change vs veh, BCL10 / RFU, UHRF1BP1L / Fold change vs veh, UHRF1BP1L / RFU, BET1 / Fold change vs veh, BET1 / RFU, CNOT2 / Fold change vs veh, CNOT2 / RFU, ZNF268 / Fold change vs veh, ZNF268 / Fold change vs veh, ZNF507 / RFU, DGCR2 / Fold change vs veh, DGCR2 / RFU, WDSUB1 / Fold change vs veh, WDSUB1 / Fold change vs veh, HSP90B1 /// MIR3652 / RFU, ADSS / Fold change vs veh, ADSS / RFU, GK / Fold change vs veh, GK / RFU, ZNF148 / Fold change vs veh, ZNF148 / RFU, TAF9 / Fold change vs veh, TAF9 / RFU, SLC1A5 / Fold change vs veh, SLC1A5 / RFU, SLMO2 / Fold change vs veh, SLMO2 / RFU, ABCC4 / Fold change vs veh, ABCC4 / RFU, LOC101060439 /// RAP1B / Fold change vs veh, LOC101060439 /// RAP1B / RFU, RFX7 / Fold change vs veh, RFX7 / RFU, GTPBP10 / Fold change vs veh, GTPBP10 / RFU, CNEP1R1 / Fold change vs veh, CNEP1R1 / RFU, BIVM-ERCC5 /// ERCC5 / Fold change vs veh, BIVM-ERCC5 /// ERCC5 / RFU, ILF3 / Fold change vs veh, ILF3 / RFU 11762660_at / Fold change /veh 11762660_at / RFU VCAN (11757783_s_at) / Fold change /veh VCAN (11757783_s_at) / RFU DDX43 (11728927_at) / Fold change /veh DDX43 (11728927_at) / RFU KRT8 (11758188_x_at) / Fold change /veh KRT8 (11758188_x_at) / RFU NKD1 (11759106_at) / Fold change /veh NKD1 (11759106_at) / RFU SRD5A1 (11742802_a_at) / Fold change /veh SRD5A1 (11742802_a_at) / RFU TPSAB1 /// TPSB2 (11721975_s_at) / Fold change /veh TPSAB1 /// TPSB2 (11721975_s_at) / RFU GSTM3 (11746129_a_at) / Fold change /veh GSTM3 (11746129_a_at) / RFU IL23R (11737362_x_at) / Fold change /veh IL23R (11737362_x_at) / RFU TMEM51 (11727254_a_at) / Fold change /veh TMEM51 (11727254_a_at) / RFU PIWIL2 (11732686_x_at) / Fold change /veh PIWIL2 (11732686_x_at) / RFU ORM1 (11744905_x_at) / Fold change /veh ORM1 (11744905_x_at) / RFU CCDC152 (11743942_at) / Fold change /veh CCDC152 (11743942_at) / RFU ECM1 (11717891_a_at) / Fold change /veh ECM1 (11717891_a_at) / RFU IL23R (11748794_a_at) / Fold change /veh IL23R (11748794_a_at) / RFU TNFAIP8L3 (11732012_x_at) / Fold change /veh TNFAIP8L3 (11732012_x_at) / RFU MBOAT4 (11741988_at) / Fold change /veh MBOAT4 (11741988_at) / RFU 11764193_at / Fold change /veh 11764193_at / RFU TMEM53 (11763286_at) / Fold change /veh TMEM53 (11763286_at) / RFU MAGEB2 (11727129_at) / Fold change /veh MAGEB2 (11727129_at) / RFU TMEM200A (11744735_a_at) / Fold change /veh TMEM200A (11744735_a_at) / RFU CCDC152 (11751479_a_at) / Fold change /veh CCDC152 (11751479_a_at) / RFU FAM211A (11726209_a_at) / Fold change /veh FAM211A (11726209_a_at) / RFU RGS16 (11746705_a_at) / Fold change /veh RGS16 (11746705_a_at) / RFU VCAN (11755009_s_at) / Fold change /veh VCAN (11755009_s_at) / RFU RHOB (11743442_s_at) / Fold change /veh RHOB (11743442_s_at) / RFU RGS16 (11720943_a_at) / Fold change /veh RGS16 (11720943_a_at) / RFU RGS16 (11720944_at) / Fold change /veh RGS16 (11720944_at) / RFU, VPS4B / Fold change vs veh, VPS4B / RFU, CREB1 / Fold change vs veh, CREB1 / RFU, DNAJC13 / Fold change vs veh, DNAJC13 / RFU, GNAQ / Fold change vs veh, GNAQ / RFU, CDK5R1 / Fold change vs veh, CDK5R1 / RFU, ZRANB3 / Fold change vs veh, ZRANB3 / RFU, CUL4A / Fold change vs veh, CUL4A / RFU, CCNY / Fold change vs veh, CCNY / RFU, UFL1 / Fold change vs veh, UFL1 / RFU, COG3 / Fold change vs veh, COG3 / RFU, DIAPH2 / Fold change vs veh, DIAPH2 / RFU, SKA2 / Fold change vs veh, SKA2 / RFU, AFF3 / Fold change vs veh, AFF3 / RFU, LMF1 / Fold change vs veh, LMF1 / RFU, IPO11 / Fold change vs veh, IPO11 / RFU, DFFB / Fold change vs veh, DFFB / RFU, FOXP1 / Fold change vs veh, FOXP1 / RFU, CARD8 / Fold change vs veh, CARD8 / RFU, STRN3 / Fold change vs veh, STRN3 / RFU, ADK / Fold change vs veh, ADK / RFU, RASSF2 / Fold change vs veh, RASSF2 / RFU, WIPF1 / Fold change vs veh, WIPF1 / RFU, LARP1B / Fold change vs veh, LARP1B / RFU, RASA1 / Fold change vs veh, RASA1 / RFU, RB1 / Fold change vs veh, RB1 / RFU, PPFIA1 / Fold change vs veh, PPFIA1 / RFU, MAT2A / Fold change vs veh, MAT2A / RFU, CCT5 / Fold change vs veh, CCT5 / RFU, WDR92 / Fold change vs veh, WDR92 / RFU, CUX1 / Fold change vs veh, CUX1 / RFU, TTC7A / Fold change vs veh, TTC7A / RFU, TMEM135 / Fold change vs veh, TMEM135 / RFU, DEPTOR / Fold change vs veh, DEPTOR / RFU, CPM / Fold change vs veh, CPM / RFU, DNAJB6 / Fold change vs veh, DNAJB6 / RFU, CACNA2D3 / Fold change vs veh, CACNA2D3 / RFU, DTX4 / Fold change vs veh, DTX4 / RFU, TFCP2 / Fold change vs veh, TFCP2 / RFU, GMCL1 /// GMCL1P1 / Fold change vs veh, GMCL1 /// GMCL1P1 / RFU, AEBP2 / Fold change vs veh, AEBP2 / RFU, SNHG1 /// SNORD22 /// SNORD25 /// SNORD26 /// SNORD27 /// SNORD28 /// SNORD29 /// SNORD31 / Fold change vs veh, SNHG1 /// SNORD22 /// SNORD25 /// SNORD26 /// SNORD27 /// SNORD28 /// SNORD29 /// SNORD31 / Fold change (Aza/veh), C12orf56 (ProbeSet 11735607_a_at) / Fold change (ACY-1035/veh), C12orf56 (ProbeSet 11735607_a_at) / Fold change (Aza/veh), FGFR1OP (ProbeSet 11751329_s_at) / Fold change (ACY-1035/veh), FGFR1OP (ProbeSet 11751329_s_at) / Fold change (Aza/veh), VPS36 (ProbeSet 11739960_a_at) / Fold change (ACY-1035/veh), VPS36 (ProbeSet 11739960_a_at) / RFU SYPL1 (11715823_x_at) / Fold change /veh SYPL1 (11715823_x_at) / RFU IGFBP7 (11715501_s_at) / Fold change /veh IGFBP7 (11715501_s_at) / RFU REEP3 (11722064_at) / Fold change /veh REEP3 (11722064_at) / RFU IGLL1 (11728026_x_at) / Fold change /veh IGLL1 (11728026_x_at): dose or concentration left out as unconfirmed
Settings: MV-4-11 cells, 48 hours

Nc1ncn([C@@H]2O[C@H](CO)[C@@H](O)[C@H]2O)c(=O)n1 [azacitidine]
Fold change /veh IGFBP7 (11715501_s_at): 0.50
